{"source": "paper PMC11681892", "about": "“Targeting p62 by sulforaphane promotes autolysosomal degradation of SLC7A11, inducing ferroptosis for osteosarcoma treatment” (Redox Biology, 2024)", "key": {"p62 [1]": {"target": "T1, p62 (Homo sapiens, UniProt Q13501)", "T1 construct": "gene SQSTM1; p62-mCherry plasmid expressed in HEK293T, RIPA lysate (MST); endogenous p62 in human osteosarcoma cells (CETSA); p62 mutants transfected into 143B cells (DARTS)", "T1 sequence (Q13501 2-440)": "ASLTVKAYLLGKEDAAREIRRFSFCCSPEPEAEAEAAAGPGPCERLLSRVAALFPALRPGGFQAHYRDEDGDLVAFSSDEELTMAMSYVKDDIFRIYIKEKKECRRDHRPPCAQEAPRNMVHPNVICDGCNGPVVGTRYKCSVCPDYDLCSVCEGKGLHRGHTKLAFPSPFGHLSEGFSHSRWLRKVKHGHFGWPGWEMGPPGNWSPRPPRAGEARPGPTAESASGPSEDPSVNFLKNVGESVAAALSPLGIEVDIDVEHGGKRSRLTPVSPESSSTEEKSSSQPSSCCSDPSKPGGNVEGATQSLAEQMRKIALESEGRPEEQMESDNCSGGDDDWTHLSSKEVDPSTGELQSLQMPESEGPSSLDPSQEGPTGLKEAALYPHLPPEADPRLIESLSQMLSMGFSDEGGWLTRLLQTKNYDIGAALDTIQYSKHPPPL", "assay": "cellular thermal shift assay (CETSA), western blot", "format": "cell-based", "details": "endogenous p62 in osteosarcoma cells, SFN 20 μM, 2 h, 46-60 °C gradient"}, "p62 [2]": {"target": "T1, p62", "assay": "microscale thermophoresis (Monolith NT.[…])", "format": "binding"}}, "data": [{"molecule": "C[S@@+]([O-])CCCCN=C=S", "note": "[Sulforaphane]", "values": [{"measurement": "thermal stability (CETSA)", "setting": "p62 [1]", "value": "SFN significantly enhanced the thermal stability of p62 in OS cells (Fig. 6C)"}, {"measurement": "Kd", "setting": "p62 [2]", "value": "15.5 ± 3.93", "unit": "µM"}]}]}
